Patent publication US9546157B2, “Asymmetric piperidinyl-substituted ureas as medicines” (Helsinn Healthcare SA, priority 2014, dated 2017)

How the values were obtained:
GHSR1a [1] = target: T1, GHSR1a (Homo sapiens, UniProt Q92847); experiment: Calcium FLIPR assay, GHSR-1a antagonism (reduction of ghrelin response); assay type: cell-based; settings: HEK293/GHSR1a cells, ghrelin 10 nM
T1 construct: expressed in transfected cells; host or cells: HEK293
Summary of the method: (§1)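 HEK293/GHSR1a; dye load 30-60 min, RT or 37° C; agonist: cpd at t=20 sec, Ca2+ read 2 min; antagonist: cpd + ghrelin 10 nM at t=20 sec, 2 min read; EC50/IC50 from dose-response fits.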

GHSR1a [2] = target: T1, GHSR1a; experiment: Calcium FLIPR assay, GHSR-1a agonism; assay type: cell-based; parameters: Emax: unit not given here; settings: HEK293/GHSR1a cells
Summary of the method: as §1

[3] = Metabolic Stability (H = Human); assay type: in vitro ADME
[4] = Metabolic Stability (M = Mouse); assay type: in vitro ADME

T1 sequence (Q92847 whole entry): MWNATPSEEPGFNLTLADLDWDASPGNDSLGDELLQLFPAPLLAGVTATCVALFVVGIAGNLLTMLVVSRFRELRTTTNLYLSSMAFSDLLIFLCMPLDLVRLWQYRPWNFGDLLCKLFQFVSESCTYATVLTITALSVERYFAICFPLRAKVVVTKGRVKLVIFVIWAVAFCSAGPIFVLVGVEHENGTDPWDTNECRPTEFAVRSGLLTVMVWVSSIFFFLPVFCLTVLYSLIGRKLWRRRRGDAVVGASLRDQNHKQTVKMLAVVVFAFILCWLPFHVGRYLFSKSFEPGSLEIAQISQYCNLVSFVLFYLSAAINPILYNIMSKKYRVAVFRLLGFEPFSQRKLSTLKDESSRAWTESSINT

With `C[C@H](NC(=O)N(C)[C@@H]1CCN(C)CC1(C)C)c1ccc(-c2cnccn2)c(Cl)c1Cl` [Compound H0890, 3-((S)-1-(2,3-dichloro-4-(pyrazin-2-yl)phenyl)ethyl)-1-methyl-1-((R)-1,3,3-trimethylpiperidin-4-yl)urea] the IC50 (GHSR1a [1]) was 1.6 nM, the EC50 (GHSR1a [2]) was > 30000 nM and the “Metabolic Stability H” value [3] was “High H High M”. The “Metabolic Stability M” value [4] was “High H High M”.

An IC50 (GHSR1a [1]) of 6 nM, an EC50 (GHSR1a [2]) of 28 nM and an Emax (GHSR1a [2]) of 2822 were found for `CN1CCC(N(C)C(=O)NC(C#N)c2ccc(-c3ccsc3)c(Cl)c2Cl)CC1` (centres unmarked) [Compound H0644, 3-(cyano(2,3-dichloro-4-(thiophen-3-yl)phenyl)methyl)-1-methyl-1-(1-methylpiperidin-4-yl)urea] in this work. For the same molecule, the “Metabolic Stability H” value [3] was “Medium H Medium M” and the “Metabolic Stability M” value [4] was “Medium H Medium M”.

With `CC(NC(=O)N(Cc1ccc(CO)cc1)C1CCN(C)CC1)c1ccc(-c2cccnc2)c(Cl)c1Cl` (centres unmarked) [Compound H0546, 3-(1-(2,3-dichloro-4-(pyridin-3-yl)phenyl)ethyl)-1-(4-(hydroxymethyl)benzyl)-1-(1-methylpiperidin-4-yl)urea] the IC50 (GHSR1a [1]) was 8 nM, the EC50 (GHSR1a [2]) was > 30000 nM and the “Metabolic Stability H” value [3] was “Medium H Medium M”. The “Metabolic Stability M” value [4] was “Medium H Medium M”.

With `CC(NC(=O)N(C)C1CCN(C)CC1)c1ccc(-c2cnc3[nH]ncc3c2)c(Cl)c1Cl` (centres unmarked) [Compound H0623, 3-(1-(2,3-dichloro-4-(1H-pyrazolo[3,4-b]pyridin-5-yl)phenyl)ethyl)-1-methyl-1-(1-methylpiperidin-4-yl)urea] the IC50 (GHSR1a [1]) was 71 nM, the EC50 (GHSR1a [2]) was > 30000 nM and the “Metabolic Stability H” value [3] was “Medium”. For the same molecule, the “Metabolic Stability M” value [4] was “Poor”.

For `CC(NC(=O)N(C)C1CCN(C)CC1)c1ccc(-c2cncc(C3=CCCC3)c2)c(Cl)c1Cl` (centres unmarked) [Compound H0705, 3-(1-(2,3-dichloro-4-(5-(cyclopent-1-en-1-yl)pyridin-3-yl)phenyl)ethyl)-1-methyl-1-(1-methylpiperidin-4-yl)urea], the IC50 (GHSR1a [1]) was 53 nM, the EC50 (GHSR1a [2]) was > 30000 nM and the “Metabolic Stability H” value [3] was “High H High M”. The “Metabolic Stability M” value [4] was “High H High M”.

With `CC(NC(=O)N(C)C1CCN(C)CC1)c1ccc(-c2cccc(C#N)c2)c(Cl)c1Cl` (centres unmarked) [Compound H0610, 3-(1-(2,3-dichloro-3′-cyano-[1,1′-biphenyl]-4-yl)ethyl)-1-methyl-1-(1-methylpiperidin-4-yl)urea] the IC50 (GHSR1a [1]) was 101 nM, the EC50 (GHSR1a [2]) was > 30000 nM and the “Metabolic Stability H” value [3] was “Medium H Medium M”. The “Metabolic Stability M” value [4] was “Medium H Medium M”.

In the case of `CC(=O)C#Cc1ccc(C(C)NC(=O)N(C)C2CCN(C)CC2)c(Cl)c1Cl` (centres unmarked) [Compound H0701, 3-(1-(2,3-dichloro-4-(3-oxobut-1-yn-1-yl)phenyl)ethyl)-1-methyl-1-(1-methylpiperidin-4-yl)urea], the IC50 (GHSR1a [1]) is reported as 20 nM, the EC50 (GHSR1a [2]) is reported as > 30000 nM and the “Metabolic Stability H” value [3] is reported as “Low H Low M”. For the same molecule, the “Metabolic Stability M” value [4] was “Low H Low M”.

For `CC(NC(=O)N(C)C1CCN(C)CC1)c1ccc(-n2ccnn2)c(Cl)c1Cl` (centres unmarked) [Compound H0565, 3-(1-(2,3-dichloro-4-(1H-1,2,3-triazol-1-yl)phenyl)ethyl)-1-methyl-1-(1-methylpiperidin-4-yl)urea], the IC50 (GHSR1a [1]) was 28 nM, the EC50 (GHSR1a [2]) was 30 nM and the “Metabolic Stability H” value [3] was “High H High M”. For the same molecule, the “Metabolic Stability M” value [4] was “High H High M”.

In the case of `CC(NC(=O)N(C)C1CCN(C)CC1)c1ccc(-c2cnn(C)c2)c(Cl)c1Cl` (centres unmarked) [Compound H0501, 3-(1-(2,3-dichloro-4-(1-methyl-1H-pyrazol-4-yl)phenyl)ethyl)-1-methyl-1-(1-methylpiperidin-4-yl)urea], the IC50 (GHSR1a [1]) is reported as 13 nM, the EC50 (GHSR1a [2]) is reported as 22 nM and the “Metabolic Stability H” value [3] is reported as “High H High M”. The “Metabolic Stability M” value [4] was “High H High M”.

In the case of `CC(NC(=O)N(C)C1CCN(C)CC1)c1ccc(-c2ccc(C(N)=O)cc2)c(Cl)c1Cl` (centres unmarked) [Compound H0615, 2′,3′-dichloro-4′-(1-(3-methyl-3-(1-methylpiperidin-4-yl)ureido)ethyl)-[1,1′-biphenyl]-4-carboxamide], the IC50 (GHSR1a [1]) is reported as 107 nM, the EC50 (GHSR1a [2]) is reported as > 30000 nM and the “Metabolic Stability H” value [3] is reported as “High”. The “Metabolic Stability M” value [4] was “Medium”.

For `CC(NC(=O)N(C)C1CCN(C)CC1)c1ccc(-c2cccc(N)c2)c2ccccc12` (centres unmarked) [Compound H0591, 3-(1-(4-(3-aminophenyl)naphthalen-1-yl)ethyl)-1-methyl-1-(1-methylpiperidin-4-yl)urea], the IC50 (GHSR1a [1]) was 11 nM, the EC50 (GHSR1a [2]) was 126 nM and the “Metabolic Stability H” value [3] was “Medium H Medium M”. For the same molecule, the “Metabolic Stability M” value [4] was “Medium H Medium M”.

In the case of `CN1CCC(N(C)C(=O)NC(CC2CC2)c2ccc(-c3cncc(N)c3)c(Cl)c2Cl)CC1` (centres unmarked) [Compound H0721, 3-(1-(4-(5-aminopyridin-3-yl)-2,3-dichlorophenyl)-2-cyclopropylethyl)-1-methyl-1-(1-methylpiperidin-4-yl)urea], the IC50 (GHSR1a [1]) is reported as 20 nM, the EC50 (GHSR1a [2]) is reported as > 30000 nM and the “Metabolic Stability H” value [3] is reported as “Medium”. For the same molecule, the “Metabolic Stability M” value [4] was “High”.

An IC50 (GHSR1a [1]) of 15 nM, an EC50 (GHSR1a [2]) of 20 nM and an Emax (GHSR1a [2]) of 2069 were found for `CC(NC(=O)N(C)C1CCN(C)CC1)c1ccc(-c2cccs2)c(Cl)c1F` (centres unmarked) [Compound H0582, 3-(1-(34-chloro-2-fluoro-4-(thiophen-2-yl)phenyl)ethyl)-1-methyl-1-(1-methylpiperidin-4-yl)urea] in this work. The “Metabolic Stability H” value [3] was “Medium H Medium M” and the “Metabolic Stability M” value [4] was “Medium H Medium M”.

With `CC(NC(=O)N(C)C1CCN(C)C1)c1ccc(-c2ccsc2)c(Cl)c1Cl` (centres unmarked) [Compound H0531, 3-(1-(2,3-dichloro-4-(thiophen-3-yl)phenyl)ethyl)-1-methyl-1-(1-methylpyrrolidin-3-yl)urea] the IC50 (GHSR1a [1]) was 4 nM, the EC50 (GHSR1a [2]) was 5 nM and the “Metabolic Stability H” value [3] was “Medium”. For the same molecule, the “Metabolic Stability M” value [4] was “Poor”.

An IC50 (GHSR1a [1]) of 3 nM, an EC50 (GHSR1a [2]) of 9 nM and an Emax (GHSR1a [2]) of 4714 were found for `CC(NC(=O)N(C)C1CCN(C)CC1)c1ccc(CC#N)c(Cl)c1Cl` (centres unmarked) [Compound H0630, 3-(1-(2,3-dichloro-4-(cyanomethyl)phenyl)ethyl)-1-methyl-1-(1-methylpiperidin-4-yl)urea] in this work. The “Metabolic Stability H” value [3] was “High H High M” and the “Metabolic Stability M” value [4] was “High H High M”.

In the case of `CC(NC(=O)N(C)C1CCN(C)CC1)c1ccc(-c2c[nH]cn2)c(Cl)c1Cl` (centres unmarked) [Compound H0542, 3-(1-(2,3-dichloro-4-(1H-imidazol-4-yl)phenyl)ethyl)-1-methyl-1-(1-methylpiperidin-4-yl)urea], the IC50 (GHSR1a [1]) is reported as 18 nM, the EC50 (GHSR1a [2]) is reported as 15 nM and the “Metabolic Stability H” value [3] is reported as “High H High M”. For the same molecule, the “Metabolic Stability M” value [4] was “High H High M”.

An IC50 (GHSR1a [1]) of 4 nM, an EC50 (GHSR1a [2]) of 9 nM and an Emax (GHSR1a [2]) of 1815 were found for `CC(NC(=O)N(C)C1CCN(C)CC1)c1ccc(-c2ccc(CO)s2)c(Cl)c1Cl` (centres unmarked) [Compound H0653, 3-(1-(2,3-dichloro-4-(5-(hydroxymethyl)thiophen-2-yl)phenyl)ethyl)-1-methyl-1-(1-methylpiperidin-4-yl)urea] in this work. For the same molecule, the “Metabolic Stability H” value [3] was “Medium H Medium M” and the “Metabolic Stability M” value [4] was “Medium H Medium M”.

With `CC(NC(=O)N(C)C1CCN(C)CC1)c1ccc(-c2ccoc2)c(Cl)c1Cl` (centres unmarked) [Compound H0507, 3-(1-(2,3-dichloro-4-(furan-3-yl)phenyl)ethyl)-1-methyl-1-(1-methylpiperidin-4-yl)urea] the IC50 (GHSR1a [1]) was 8 nM, the EC50 (GHSR1a [2]) was 12 nM and the “Metabolic Stability H” value [3] was “High H High M”. The “Metabolic Stability M” value [4] was “High H High M”.

For `CC(NC(=O)N(C)C1CCN(C)CC1)c1ccc(-c2cocn2)c(Cl)c1Cl` (centres unmarked) [Compound H0569, 3-(1-(2,3-dichloro-4-(oxazol-4-yl)phenyl)ethyl)-1-methyl-1-(1-methylpiperidin-4-yl)urea], the IC50 (GHSR1a [1]) was 87 nM, the EC50 (GHSR1a [2]) was > 30000 nM and the “Metabolic Stability H” value [3] was “Medium H Medium M”. The “Metabolic Stability M” value [4] was “Medium H Medium M”.

An IC50 (GHSR1a [1]) of 32 nM, an EC50 (GHSR1a [2]) of 28 nM and an Emax (GHSR1a [2]) of 3533 were found for `CC(NC(=O)N(C)C1CCN(C)CC1)c1ccc(-c2cccs2)c2ccccc12` (centres unmarked) [Compound H0575, 1-methyl-1-(1-methylpiperidin-4-yl)-3-(1-(4-(thiophen-2-yl)naphthalen-1-yl)ethyl)urea] in this work. For the same molecule, the “Metabolic Stability H” value [3] was “Medium H Medium M” and the “Metabolic Stability M” value [4] was “Medium H Medium M”.

An IC50 (GHSR1a [1]) of 6 nM, an EC50 (GHSR1a [2]) of 10 nM and an Emax (GHSR1a [2]) of 2200 were found for `CC(NC(=O)N(C)C1CCN(C)CC1)c1ccc(-c2ccc(C(F)F)s2)c(Cl)c1Cl` (centres unmarked) [Compound H0654, 3-(1-(2,3-dichloro-4-(5-(difluoromethyl)thiophen-2-yl)phenyl)ethyl)-1-methyl-1-(1-methylpiperidin-4-yl)urea] in this work. For the same molecule, the “Metabolic Stability H” value [3] was “High” and the “Metabolic Stability M” value [4] was “Medium”.

With `CC(NC(=O)N(C)C1CCN(C)CC1)c1ccc(-c2cncc(CO)c2)c(Cl)c1Cl` (centres unmarked) [Compound H0636, 3-(1-(2,3-dichloro-4-(5-(hydroxymethyl)pyridin-3-yl)phenyl)ethyl)-1-methyl-1-(1-methylpiperidin-4-yl)urea] the IC50 (GHSR1a [1]) was 90 nM, the EC50 (GHSR1a [2]) was > 30000 nM and the “Metabolic Stability H” value [3] was “High”. For the same molecule, the “Metabolic Stability M” value [4] was “Medium”.

An IC50 (GHSR1a [1]) of 35 nM, an EC50 (GHSR1a [2]) of 51 nM and an Emax (GHSR1a [2]) of 1910 were found for `Cc1nccnc1-c1ccc(C(C)NC(=O)N(C)[C@@H]2CCN(C)CC2(C)C)c(Cl)c1Cl` (stereo partly drawn) [Compound H0843, 3-(1-(2,3-dichloro-4-(3-methylpyrazin-2-yl)phenyl)ethyl)-1-methyl-1-((R)-1,3,3-trimethylpiperidin-4-yl)urea] in this work.

With `CC(NC(=O)N(C)C1CCN(C)CC1)c1ccc(-c2ccc(N(C)C)cc2)c(Cl)c1Cl` (centres unmarked) [Compound H0518, 3-(1-(2,3-dichloro-4′-(dimethylamino)-[1,1′-biphenyl]-4-yl)ethyl)-1-methyl-1-(1-methylpiperidin-4-yl)urea] the IC50 (GHSR1a [1]) was 841 nM and the EC50 (GHSR1a [2]) was > 30000 nM.

For `CC(=O)c1cncc(-c2ccc(C(C)NC(=O)N(C)C3CCN(C)CC3)c(Cl)c2Cl)c1` (centres unmarked) [Compound H0690, 3-(1-(4-(5-acetylpyridin-3-yl)-2,3-dichlorophenyl)ethyl)-1-methyl-1-(1-methylpiperidin-4-yl)urea], the IC50 (GHSR1a [1]) was 980 nM and the EC50 (GHSR1a [2]) was > 30000 nM.
